Biological target: Aβ42 (Homo sapiens, UniProt P05067)
Experiment: Th-T (thioflavin-T) assay of Aβ42 aggregation
Format: biochemical
Settings: for Th-T assay plate reading, mean of three wells (Supplementary Fig. 47): source data, Ab alone and No Ab as controls

Chain of Aβ42 (P05067 672-713): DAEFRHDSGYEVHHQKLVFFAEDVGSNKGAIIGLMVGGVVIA

In the case of `C=C1CCC2C(C)(CCC=C(C)C)C(O)CCC2(C)C1Cc1c(OC)oc(C)c(C)c1=O` (stereo not drawn) [Compound 11], the “Th-T fluorescence, mean of three wells” value (Aβ42 aggregation time course, reading M117) is reported as 3.419, the “Th-T fluorescence, mean of three wells” value (Aβ42 aggregation time course, reading M118) is reported as 3.454 and the “Th-T fluorescence, mean of three wells” value (Aβ42 aggregation time course, reading M119) is reported as 3.399. The “Th-T fluorescence, mean of three wells” value (Aβ42 aggregation time course, reading M120) was 3.398, the “Th-T fluorescence, mean of three wells” value (Aβ42 aggregation time course, reading M121) was 3.42 and the “Th-T fluorescence, mean of three wells” value (Aβ42 aggregation time course, reading M122) was 3.434. The “Th-T fluorescence, mean of three wells” value (Aβ42 aggregation time course, reading M123) was 3.405, the “Th-T fluorescence, mean of three wells” value (Aβ42 aggregation time course, reading M124) was 3.409 and the “Th-T fluorescence, mean of three wells” value (Aβ42 aggregation time course, reading M125) was 3.379. The “Th-T fluorescence, mean of three wells” value (Aβ42 aggregation time course, reading M126) was 3.403, the “Th-T fluorescence, mean of three wells” value (Aβ42 aggregation time course, reading M127) was 3.386 and the “Th-T fluorescence, mean of three wells” value (Aβ42 aggregation time course, reading M128) was 3.37. For the same molecule, the “Th-T fluorescence, mean of three wells” value (Aβ42 aggregation time course, reading M129) was 3.334, the “Th-T fluorescence, mean of three wells” value (Aβ42 aggregation time course, reading M130) was 3.361 and the “Th-T fluorescence, mean of three wells” value (Aβ42 aggregation time course, reading M131) was 3.331. For the same molecule, the “Th-T fluorescence, mean of three wells” value (Aβ42 aggregation time course, reading M132) was 3.363, the “Th-T fluorescence, mean of three wells” value (Aβ42 aggregation time course, reading M133) was 3.349 and the “Th-T fluorescence, mean of three wells” value (Aβ42 aggregation time course, reading M134) was 3.347. For the same molecule, the “Th-T fluorescence, mean of three wells” value (Aβ42 aggregation time course, reading M135) was 3.342, the “Th-T fluorescence, mean of three wells” value (Aβ42 aggregation time course, reading M136) was 3.355 and the “Th-T fluorescence, mean of three wells” value (Supplementary Fig. 47, reading M137) was 3.327. For the same molecule, the “Th-T fluorescence, mean of three wells” value (Supplementary Fig. 47, reading M138) was 3.302, the “Th-T fluorescence, mean of three wells” value (Supplementary Fig. 47, reading M139) was 3.301 and the “Th-T fluorescence, mean of three wells” value (Supplementary Fig. 47, reading M140) was 3.319. For the same molecule, the “Th-T fluorescence, mean of three wells” value (Supplementary Fig. 47, reading M141) was 3.315, the “Th-T fluorescence, mean of three wells” value (Supplementary Fig. 47, reading M142) was 3.306 and the “Th-T fluorescence, mean of three wells” value (Supplementary Fig. 47, reading M143) was 3.276. The “Th-T fluorescence, mean of three wells” value (Supplementary Fig. 47, reading M144) was 3.297, the “Th-T fluorescence, mean of three wells” value (Supplementary Fig. 47, reading M145) was 3.29 and the “Th-T assay plate reading, mean of three wells (Supplementary Fig. 47)” value (“Th-T assay plate reading, mean” for short) (measurement M1) was 0.2852. The “Th-T assay plate reading, mean” value (measurement M2) was 0.2849, the “Th-T assay plate reading, mean” value (measurement M3) was 0.2915 and the “Th-T assay plate reading, mean” value (measurement M4) was 0.2733. For the same molecule, the “Th-T assay plate reading, mean” value (measurement M5) was 0.2777, the “Th-T assay plate reading, mean” value (measurement M6) was 0.2762 and the “Th-T assay plate reading, mean” value (measurement M7) was 0.318. For the same molecule, the “Th-T assay plate reading, mean” value (measurement M8) was 0.3144, the “Th-T assay plate reading, mean” value (measurement M9) was 0.404 and the “Th-T assay plate reading, mean” value (measurement M10) was 0.4577. For the same molecule, the “Th-T assay plate reading, mean” value (measurement M11) was 0.5537, the “Th-T assay plate reading, mean” value (measurement M12) was 0.8108 and the “Th-T assay plate reading, mean” value (measurement M13) was 1.388. The “Th-T assay plate reading, mean” value (measurement M14) was 1.929, the “Th-T assay plate reading, mean” value (measurement M15) was 2.27 and the “Th-T assay plate reading, mean” value (measurement M16) was 2.506. The “Th-T fluorescence, mean of three wells” value (reading M17, Supplementary Fig. 47 source data) was 2.688, the “Th-T fluorescence, mean of three wells” value (time-course reading M97, Supplementary Fig. 47 source data) was 3.56 and the “Th-T fluorescence, mean of three wells” value (time-course reading M98, Supplementary Fig. 47 source data) was 3.55. The “Th-T fluorescence, mean of three wells” value (time-course reading M99, Supplementary Fig. 47 source data) was 3.504, the “Th-T fluorescence, mean of three wells” value (time-course reading M100, Supplementary Fig. 47 source data) was 3.536 and the “Th-T fluorescence, mean of three wells” value (time-course reading M101, Supplementary Fig. 47 source data) was 3.529. For the same molecule, the “Th-T fluorescence, mean of three wells” value (time-course reading M102, Supplementary Fig. 47 source data) was 3.494, the “Th-T fluorescence, mean of three wells” value (time-course reading M103, Supplementary Fig. 47 source data) was 3.477 and the “Th-T fluorescence, mean of three wells” value (time-course reading M104, Supplementary Fig. 47 source data) was 3.513. For the same molecule, the “Th-T fluorescence, mean of three wells” value (time-course reading M105, Supplementary Fig. 47 source data) was 3.503, the “Th-T fluorescence, mean of three wells” value (time-course reading M106, Supplementary Fig. 47 source data) was 3.461 and the “Th-T fluorescence, mean of three wells” value (time-course reading M107, Supplementary Fig. 47 source data) was 3.469. The “Th-T fluorescence, mean of three wells” value (time-course reading M108, Supplementary Fig. 47 source data) was 3.473, the “Th-T fluorescence, mean of three wells” value (time-course reading M109, Supplementary Fig. 47 source data) was 3.5 and the “Th-T fluorescence, mean of three wells” value (time-course reading M110, Supplementary Fig. 47 source data) was 3.498. The “Th-T fluorescence, mean of three wells” value (time-course reading M111, Supplementary Fig. 47 source data) was 3.4993, the “Th-T fluorescence, mean of three wells” value (time-course reading M112, Supplementary Fig. 47 source data) was 3.484 and the “Th-T fluorescence, mean of three wells” value (time-course reading M113, Supplementary Fig. 47 source data) was 3.437. For the same molecule, the “Th-T fluorescence, mean of three wells” value (time-course reading M114, Supplementary Fig. 47 source data) was 3.447, the “Th-T fluorescence, mean of three wells” value (time-course reading M115, Supplementary Fig. 47 source data) was 3.426 and the “Th-T fluorescence, mean of three wells” value (time-course reading M116, Supplementary Fig. 47 source data) was 3.43.

— PMC7156458, “Synthetic biology based construction of biological activity-related library of fungal decalin-containing diterpenoid pyrones” (Nature Communications, 2020)
